Laboratory results as given in ChEMBL document CHEMBL3862018, “Structure-activity of antifungal compounds inspired by aminobisabolenes from the sponge Halichondria sp” (2016).
≈ marks a conversion by molar mass, not a printed value.

Legend:
[1] = Antifungal activity against Trichophyton rubrum MRL666 after 72 hrs by CLSI M38-A method; type: functional
[2] = tested on: Cryptococcus gattii species complex; test: Antifungal activity against Cryptococcus gattii after 24 hrs by microbroth dilution method; type: functional, Cryptococcus bacillisporus
Candida albicans = test: Antifungal activity against Candida albicans ATCC 14503 after 24 hrs by microbroth dilution method; type: functional; details: ATCC 14503, 24 h
[3] = Antifungal activity against Candida krusei after 24 hrs by microbroth dilution method; type: functional; details: Pichia kudriavzevii
[4] = Antifungal activity against Candida glabrata after 24 hrs by microbroth dilution method; type: functional; details: Nakaseomyces glabratus

Structure (SMILES) | MIC90 [1] | MIC90 [2] | MIC90 (Candida albicans) | MIC90 [3] | MIC90 [4]
CC(C)=CCC[C@](C)(NCc1cccc2ccccc12)[C@H]1CC=C(C)CC1 | 70 µM (≈ 25.3 µg/mL) | > 250 µM | > 250 µM | – | –
CN(C/C=C/C#CC(C)(C)C)Cc1cccc2ccccc12 [TERBINAFINE] | – | 5.3 µM (≈ 1.54 µg/mL) | > 250 µM | > 250 µM | > 250 µM
CC(C)=CCC[C@@](C)([C@H]1CC=C(C)CC1)N(C)Cc1cccc2ccccc12 | > 250 µM | > 250 µM | > 250 µM | – | –
CC(C)CCC[C@@](C)(C1CCC(C)CC1)N(C)C (some centres not stated) | – | 31 µM (≈ 7.86 µg/mL) | 142 µM (≈ 36 µg/mL) | 58 µM (≈ 14.7 µg/mL) | 139 µM (≈ 35.2 µg/mL)
CC(C)=CCC[C@](C)(N)[C@H]1CC=C(C)CC1 | 17 µM (≈ 3.76 µg/mL) | 53 µM (≈ 11.7 µg/mL) | 72 µM (≈ 15.9 µg/mL) | 36 µM (≈ 7.97 µg/mL) | 38 µM (≈ 8.41 µg/mL)
CC(C)CCC[C@](C)(N)C1CCC(C)CC1 (some centres not stated) | – | 18 µM (≈ 4.06 µg/mL) | 50 µM (≈ 11.3 µg/mL) | 14 µM (≈ 3.16 µg/mL) | 18 µM (≈ 4.06 µg/mL)
C[C@@H]1[C@H](O)[C@@H](C)/C=C/C=C/C=C/C=C/C=C/C=C/C=C/[C@H](O[C@@H]2O[C@H](C)[C@@H](O)[C@H](N)[C@@H]2O)C[C@@H]2O[C@](O)(C[C@@H](O)C[C@@H](O)[C@H](O)CC[C@@H](O)C[C@@H](O)CC(=O)O[C@H]1C)C[C@H](O)[C@H]2C(=O)O [AMPHOTERICIN B] | – | 0.1 µM (≈ 0.0924 µg/mL) | 0.3 µM (≈ 0.277 µg/mL) | 0.5 µM (≈ 0.462 µg/mL) | 0.2 µM (≈ 0.185 µg/mL)
